In patent US6642271B2, “Potentiating compounds” (Ardenia Investments, Ltd., priority 2001, dated 2003):
Blank lines part the entries; values can stand above or below the compound they belong to.

Tests used:
[1] = tested on: human breast adenocarcinoma MDA-MB-231 cell line; test: Cytotoxicity: cell growth inhibition in cultures, viable cells counted by trypan blue exclusion; assay type: cell-based; conditions: for inhibition at 0.04 µM / inhibition at 1 µM / inhibition at 0.1 µM / inhibition at 0.01 µM / inhibition at 0.001 µM / inhibition at 0.0001 µM / inhibition at 10 pM: Homo sapiens; for Cell growth inhibition % Formulation: compound/paclitaxel formulations in saline; for Cell growth inhibition % OF W/SAB / Cell growth inhibition % OF SAB/W: dried compound/paclitaxel mixed-micellar system (OF); for Cell growth inhibition % OF W/SAB: freeze-dried as water solution, reconstituted with 0.05 M sodium acetate buffer; for Cell growth inhibition % OF SAB/W: freeze-dried in 0.05 M sodium acetate buffer, reconstituted with water
Method: The cell line was propagated by cultivation in Nunclon 25 cm^2 flasks (Nunc A/S, Denmark) in Minimum Essential Medium Eagle (MEM), containing antibiotics and supplemented with 10% (v/v) fetal bovine serum (FBS) (Sigma, St. Louis, Mo., USA). The cultures were maintained in growth medium at 37° C. in a humidified atmosphere, 95% air and 5% CO2.
A suspension of tumour cells (60×10^3 cells/mL) was prepared in MEM with 5% FBS and antibiotics. Cell suspension (200 μL) was seeded in wells of Nunclon 96-microwell plates (Nunc A/S, Denmark) at a density of 12×10^3 cell/well. The solutions of the drugs to be tested were added to the cultures on day 0 or day 1 in volumes of 2 μL. In all cases the cells were incubated for 3 days.
At the end of the incubation period, adherent cells were detached by trypsinization and the number of viable cells was counted using trypan blue dye exclusion test and a hemocytometer.
All experiments were performed at least twice and the cells counts were done in triplicate for each drug concentration. Each control and test series consisted of 6-8 cultures. The results are expressed as mean cell number ±SD and the differences between control and test series were evaluated by means of Student's t-test. The cytotoxicity of each tested drug was evaluated by the extent of cell growth inhibition. The Cell growth inhibition was evaluated as follows:
Cell growth inhibition, %=- - - ×100

[2] = Solubility of compounds and formulations; assay type: physicochemical; conditions: for solubility in solvents: sodium salts
Method: The obtained solution can be stored for at least three months at low temperatures, without noticeable change in the properties of compound (I-VI). Moreover, the formulation retains its cytotoxic effects during prolonged storage. Before use, the solution is evaporated in vacuo to yield a waxy solid which is dissolved in saline or other commonly used vehicle for intravenous infusion to a patient. […] An ethanol solution is prepared of one of N-(all-trans-Retinoyl)-L-cysteic acid (I), N-(13-cis-Retinoyl)-L-cysteic acid (11), N-(all-trans-Retinoyl)-L-homocysteic acid (III), N-(13-cis-Retinoyl)-L-homocysteic acid (IV), N-(all-trans-Retinoyl)-L-cysteinesulfinic acid (V), or N-(13-cis-Retinoyl)-L-cysteinesulfinic acid (VI). The obtained solution is evaporated in vacuo to give waxy solid, whereupon Taxol® is added, dissolving the waxy solid. […]

[3] = MDA-MB-231, compound alone 4 × 10^−8 mol/L (40 nM), added day 0, three days
[4] = MDA-MB-231, dry substance, stock 1 mg/ml in saline, final 4 × 10^−8 mol/L, day 1, three days
[5] = MDA-MB-231, dry substance, stock 1 mg/ml in saline, final 10^−6 mol/L, day 1, three days
[6] = MDA-MB-231, dry substance, stock 1 mg/ml in saline, final 10^−7 mol/L, day 1, three days
[7] = MDA-MB-231, dry substance, stock 1 mg/ml in saline, final 10^−8 mol/L, day 1, three days
[8] = MDA-MB-231, dry substance, stock 1 mg/ml in saline, final 10^−9 mol/L, day 1, three days
[9] = MDA-MB-231, dry substance, stock 1 mg/ml in saline, final 10^−10 mol/L, day 1, three days
[10] = MDA-MB-231, dry substance, stock 1 mg/ml in saline, final concentration 10^−11 mol/L, day 1, three days
[11] = MDA-MB-231, sodium salt in saline, final 4 × 10^−8 mol/L, day 1, three days
[12] = MDA-MB-231, sodium salt in saline, final 10^−6 mol/L (top of range 10^−11 M to 10^−6 M), day 1, three days
[13] = MDA-MB-231, sodium salt in saline, final 10^−7 mol/L, day 1, three days
[14] = MDA-MB-231, sodium salt in saline, final 10^−8 mol/L, day 1, three days
[15] = MDA-MB-231, sodium salt in saline, final 10^−9 mol/L, day 1, three days
[16] = MDA-MB-231, sodium salt in saline, final 10^−10 mol/L, day 1, three days
[17] = MDA-MB-231, sodium salt of the compound dissolved in saline (1 mg/ml), final concentration 10^−11 mol/L, day 1, three days
[18] = compound alone 4 × 10^−8 mol/L (40 nM), added day 0, three days, 0.04 µM
[19] = compound alone 4 × 10^−8 mol/L, added day 0, three days
[20] = dry substance, stock 1 mg/ml in saline, final 4 × 10^−8 mol/L, day 1, three days
[21] = dry substance, stock 1 mg/ml in saline, final 10^−6 mol/L, day 1, three days
[22] = dry substance, stock 1 mg/ml in saline, final 10^−7 mol/L, day 1, three days
[23] = dry substance, stock 1 mg/ml in saline, final 10^−8 mol/L, day 1, three days
[24] = dry substance, stock 1 mg/ml in saline, final 10^−9 mol/L, day 1, three days
[25] = dry substance, stock 1 mg/ml in saline, final 10^−10 mol/L, day 1, three days
[26] = dry substance, stock 1 mg/ml in saline, final concentration 10^−11 mol/L, day 1, three days
[27] = initial saline solution 0.005 mg/mL, final 40 nM in cultures, added day 1, three days of cultivation
[28] = initial saline solution 0.05 mg/mL, final 40 nM, day 1, three days
[29] = initial saline solution 0.5 mg/mL, final 40 nM, day 1, three days
[30] = initial saline solution 1.0 mg/mL, final 40 nM, day 1, three days
[31] = initial saline solution 5.0 mg/mL, final 40 nM, day 1, three days
[32] = sodium salt in saline, final 4 × 10^−8 mol/L, day 1, three days
[33] = sodium salt in saline, final 10^−6 mol/L (top of range 10^−11 M to 10^−6 M), day 1, three days
[34] = sodium salt in saline, final 10^−6 mol/L, day 1, three days
[35] = sodium salt in saline, final 10^−7 mol/L, day 1, three days
[36] = sodium salt in saline, final 10^−8 mol/L, day 1, three days
[37] = sodium salt in saline, final 10^−9 mol/L, day 1, three days
[38] = sodium salt in saline, final 10^−10 mol/L, day 1, three days
[39] = sodium salt of the compound dissolved in saline (1 mg/ml), final concentration 10^−11 mol/L, day 1, three days

solubility in the commercially available Taxol® preparation [2]: excellent solubility
Compound: CC1=C(/C=C/C(C)=C/C=C/C(C)=C/C(=O)N[C@@H](CS(=O)(=O)O)C(=O)O)C(C)(C)CCC1 [Compound I, N-(all-trans-Retinoyl)-L-cysteic acid]
inhibition at 0.04 µM [1, 3]: 39.6%
inhibition at 0.04 µM [1, 4]: 38.1%
inhibition at 1 µM [1, 5]: 42.1%
inhibition at 0.1 µM [1, 6]: 39.1%
inhibition at 0.01 µM [1, 7]: 29.9%
inhibition at 0.001 µM [1, 8]: 19.8%
inhibition at 0.0001 µM [1, 9]: 18.6%
inhibition at 10 pM [1, 10]: 27.3%
inhibition at 0.04 µM [1, 11]: 46.8%
inhibition at 1 µM [1, 12]: 49.7%
inhibition at 0.1 µM [1, 13]: 48%
inhibition at 0.01 µM [1, 14]: 46.2%
inhibition at 0.001 µM [1, 15]: 39.7%
inhibition at 0.0001 µM [1, 16]: 36.5%
inhibition at 10 pM [1, 17]: 28.6%
cell growth inhibition [1, 18]: ~40%
number of living cells [1, 19]: 16.3 ± 2.50 × 10^3
Cell growth inhibition % Formulation [1]: close to 75%
Cell growth inhibition % OF W/SAB [1]: close to 71%
Cell growth inhibition % OF SAB/W [1]: close to 72%
number of living cells [1, 20]: 30.9 ± 1.62 × 10^3
number of living cells [1, 21]: 28.9 ± 2.68 × 10^3
number of living cells [1, 22]: 30.4 ± 1.83 × 10^3
number of living cells [1, 23]: 35.0 ± 4.38 × 10^3
number of living cells [1, 24]: 40.0 ± 2.31 × 10^3
number of living cells [1, 25]: 40.6 ± 1.69 × 10^3
number of living cells [1, 26]: 36.3 ± 3.82 × 10^3
cell growth inhibition [1, 27]: 33.3%
number of living cells [1, 27]: 33.3 ± 2.55 × 10^3
cell growth inhibition [1, 28]: 32.1%
number of living cells [1, 28]: 33.9 ± 2.78 × 10^3
cell growth inhibition [1, 29]: 31.5%
number of living cells [1, 29]: 34.2 ± 5.09 × 10^3
cell growth inhibition [1, 30]: 38.3%
number of living cells [1, 30]: 30.8 ± 3.53 × 10^3
cell growth inhibition [1, 31]: 27.7%
number of living cells [1, 31]: 36.1 ± 4.10 × 10^3
number of living cells [1, 32]: 31.2 ± 1.72 × 10^3
cell growth inhibition [1, 33]: ~50%
number of living cells [1, 34]: 29.5 ± 1.36 × 10^3
number of living cells [1, 35]: 30.5 ± 0.89 × 10^3
number of living cells [1, 36]: 31.6 ± 1.69 × 10^3
number of living cells [1, 37]: 35.4 ± 2.23 × 10^3
number of living cells [1, 38]: 37.3 ± 2.84 × 10^3
number of living cells [1, 39]: 41.9 ± 2.17 × 10^3
solubility in solvents [2]: soluble only in mixtures containing water

solubility in the commercially available Taxol® preparation [2]: excellent solubility
Compound: CC1=C(/C=C/C(C)=C/C=C/C(C)=C\C(=O)N[C@@H](CS(=O)(=O)O)C(=O)O)C(C)(C)CCC1 [Compound II, N-(13-cis-Retinoyl)-L-cysteic acid]
inhibition at 0.04 µM [1, 3]: 35.3%
inhibition at 0.04 µM [1, 4]: 36.8%
inhibition at 1 µM [1, 5]: 41.9%
inhibition at 0.1 µM [1, 6]: 38.4%
inhibition at 0.01 µM [1, 7]: 27.5%
inhibition at 0.001 µM [1, 8]: 21.5%
inhibition at 0.0001 µM [1, 9]: 17.8%
inhibition at 10 pM [1, 10]: 28.9%
inhibition at 0.04 µM [1, 11]: 46.8%
inhibition at 1 µM [1, 12]: 51.6%
inhibition at 0.1 µM [1, 13]: 46%
inhibition at 0.01 µM [1, 14]: 46.5%
inhibition at 0.001 µM [1, 15]: 41.2%
inhibition at 0.0001 µM [1, 16]: 35.1%
inhibition at 10 pM [1, 17]: 27.9%
cell growth inhibition [1, 18]: ~40%
number of living cells [1, 19]: 29.9 ± 2.38 × 10^3
Cell growth inhibition % Formulation [1]: close to 75%
Cell growth inhibition % OF W/SAB [1]: close to 71%
Cell growth inhibition % OF SAB/W [1]: close to 72%
number of living cells [1, 20]: 32.6 ± 2.52 × 10^3
number of living cells [1, 21]: 30.0 ± 2.14 × 10^3
number of living cells [1, 22]: 31.8 ± 2.05 × 10^3
number of living cells [1, 23]: 37.4 ± 3.86 × 10^3
number of living cells [1, 24]: 40.5 ± 2.11 × 10^3
number of living cells [1, 25]: 42.4 ± 1.93 × 10^3
number of living cells [1, 26]: 36.7 ± 3.65 × 10^3
cell growth inhibition [1, 27]: 32.6%
number of living cells [1, 27]: 34.8 ± 3.27 × 10^3
number of living cells [1, 28]: 33.4 ± 2.91 × 10^3
cell growth inhibition [1, 29]: 35.9%
number of living cells [1, 29]: 33.1 ± 3.01 × 10^3
cell growth inhibition [1, 30]: 37.6%
number of living cells [1, 30]: 32.2 ± 2.14 × 10^3
cell growth inhibition [1, 31]: 29.3%
number of living cells [1, 31]: 36.5 ± 3.88 × 10^3
number of living cells [1, 32]: 31.2 ± 2.33 × 10^3
cell growth inhibition [1, 33]: ~50%
number of living cells [1, 34]: 28.4 ± 1.02 × 10^3
number of living cells [1, 35]: 31.7 ± 1.54 × 10^3
number of living cells [1, 36]: 31.4 ± 1.62 × 10^3
number of living cells [1, 37]: 34.5 ± 1.94 × 10^3
number of living cells [1, 38]: 38.1 ± 1.18 × 10^3
number of living cells [1, 39]: 42.3 ± 2.32 × 10^3
solubility in solvents [2]: soluble only in mixtures containing water

solubility in the commercially available Taxol® preparation [2]: excellent solubility
Compound: CC1=C(/C=C/C(C)=C/C=C/C(C)=C/C(=O)N[C@@H](CCS(=O)(=O)O)C(=O)O)C(C)(C)CCC1 [Compound III, N-(all-trans-Retinoyl)-L-homocysteic acid]
inhibition at 0.04 µM [1, 11]: 32.8%
inhibition at 1 µM [1, 12]: 36.1%
inhibition at 0.1 µM [1, 13]: 34.4%
inhibition at 0.01 µM [1, 14]: 25.8%
inhibition at 0.001 µM [1, 15]: 19.7%
inhibition at 0.0001 µM [1, 16]: 15.5%
inhibition at 10 pM [1, 17]: 16.9%
Cell growth inhibition % Formulation [1]: close to 60%
Cell growth inhibition % OF W/SAB [1]: close to 62%
Cell growth inhibition % OF SAB/W [1]: close to 63%
number of living cells [1, 32]: 36.5 ± 2.08 × 10^3
cell growth inhibition [1, 33]: ~35%
number of living cells [1, 34]: 34.7 ± 1.52 × 10^3
number of living cells [1, 35]: 35.6 ± 1.68 × 10^3
number of living cells [1, 36]: 40.3 ± 3.36 × 10^3
number of living cells [1, 37]: 43.6 ± 2.57 × 10^3
number of living cells [1, 38]: 45.9 ± 2.84 × 10^3
number of living cells [1, 39]: 45.1 ± 3.51 × 10^3
solubility in solvents [2]: also dissolved in methanol and some methanol containing mixtures
